The record followed here is paper PMC4301037, “Identification and Structure–Function Analysis of Subfamily Selective G Protein-Coupled Receptor Kinase Inhibitors” (ACS Chemical Biology, 2014).

The target of the first assay is T1, bovine GRK5 (Bos taurus, UniProt P43249).
T1 construct: when using full-length kinases as the receptor[37] instead of isolated kinase domains; made in house
T1 sequence (P43249 whole entry, the tested form may be a part): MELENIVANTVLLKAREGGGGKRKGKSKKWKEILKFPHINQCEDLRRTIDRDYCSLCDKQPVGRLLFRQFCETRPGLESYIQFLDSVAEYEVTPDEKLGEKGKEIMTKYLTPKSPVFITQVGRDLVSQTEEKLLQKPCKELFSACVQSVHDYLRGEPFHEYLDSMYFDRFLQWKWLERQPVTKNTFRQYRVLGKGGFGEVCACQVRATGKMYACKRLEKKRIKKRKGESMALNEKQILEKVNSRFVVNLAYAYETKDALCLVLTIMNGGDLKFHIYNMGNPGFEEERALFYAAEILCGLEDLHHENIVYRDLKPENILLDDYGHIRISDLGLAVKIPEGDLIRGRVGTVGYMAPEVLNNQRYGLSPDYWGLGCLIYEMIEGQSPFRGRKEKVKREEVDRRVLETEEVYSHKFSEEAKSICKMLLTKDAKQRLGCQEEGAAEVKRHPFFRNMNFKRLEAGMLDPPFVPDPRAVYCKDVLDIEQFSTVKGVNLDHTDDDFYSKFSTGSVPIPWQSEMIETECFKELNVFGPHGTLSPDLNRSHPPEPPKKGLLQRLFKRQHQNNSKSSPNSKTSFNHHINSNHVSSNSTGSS
In words: Primary DSF inhibitor screen, GRK5. Type of assay: binding. The settings on record: 10 μM compound, 2 μM kinase, relative to DMSO control.
As for `Nc1ncnc2c1c(I)cn2[C@@H]1O[C@H](CO)[C@@H](O)[C@H]1O` [5-Iodotubercidin, 4-Amino-5-iodo-7-(b-D-ribofuranosyl)pyrrolo[2,3-d]pyrimidine], the “ΔTm, primary screen, GRK5” value was found to be 2.22 °C. The same measure, in the same setting: under `CS(=O)(=O)c1cccc(CNc2nc(Nc3ccc4c(c3)CCC(=O)N4)ncc2C(F)(F)F)c1` [PF 573228] stands 2.67 °C; under `O=C1NC(=O)C(c2cn(CCCn3ccnc3)c3ccccc23)=C1Nc1ccccc1` [PKC beta inhibitor], 3.13 °C. On the same count and under the same terms, as for `Cc1cc(C=C2C(=O)C=CC2=O)cc(C)c1O` [TX-1918, 2-((3,5-dimethyl-4-hydroxyphenyl)-methylene)-4-cyclopentene-1,3-dione], the figure is 2.21 °C. With `Cc1cncc2cccc(S(=O)(=O)N3CCCNC[C@@H]3C)c12` [H-1152, (S)-(+)-2-Methyl-1-[(4-methyl-5-isoquinolinyl)sulfonyl]homopiperazine], the “ΔTm, primary screen, GRK5” value came out at 5.95 °C. The same measure, in the same setting: as for Wee1/Chk1 inhibitor, the figure is 4.89 °C; as for `CC(C)n1cnc2c(Nc3cccc(Cl)c3)nc(NCCO)nc21` [Compound 52, 2-(2-Hydroxyethylamino)-6-(3-chloroanilino)-9-isopropylpurine], 5.53 °C; as for `Nc1cc2ncnc(Nc3cccc(Br)c3)c2cc1N` [4-[(3-Bromophenyl)amino]-6,7-diaminoquinazoline], 6.16 °C.

Regarding `NC1=NC(=O)C(=C2CCNC(=O)c3[nH]c(Br)cc32)N1` [10Z-Hymenialdisine, 4-(2-Amino-4-oxo-2-imidazolidin-5-ylidene)-2-bromo-4,5,6,7-tetrahydropyrrolo[2,3-c]azepin-8-one], the “ΔTm, primary screen, GRK5” value worked out at 4.5 °C. Same read-out and setting: as for `O=C1Nc2ccccc2C1=Cc1c(Cl)[nH]c2ccccc12` [3-(2-Chloro-3-indolylmethylene)-1,3-dihydroindol-2-one], the figure is 2.98 °C; as for `O=C1NC(=O)C(c2c[nH]c3ccccc23)=C1c1c[nH]c2ccccc12` [BIM 4, bisindolylmaleimide IV], 3.11 °C.

Take IGF-1R Inhibitor II: the “ΔTm, primary screen, GRK5” value was determined as 2.42 °C. On the same count and under the same terms, as for `O=C1NC(=NCc2cccs2)S/C1=C\c1ccc2ncccc2c1` [RO-3306], the figure is 5.48 °C. For `Brc1c(Br)c(Br)c2[nH]nnc2c1Br` [4,5,6,7-Tetrabromobenzo-triazole], the “ΔTm, primary screen, GRK5” value was 8.22 °C. Same read-out and setting: as for `Cn1cc(/C=C2\C(=O)Nc3ccc(S(N)(=O)=O)cc32)c2ccccc21` [Syk Inhibitor], the figure is 3.6 °C; as for `CN(C)CCCn1cc(C2=C(c3c[nH]c4ccccc34)C(=O)NC2=O)c2ccccc21.Cl` [BIM I, 2-[1-(3-Dimethylaminopropyl)-1H-indol-3-yl]-3-(1H-indol-3-yl)maleimide, HCl], 6.45 °C; as for `COC(=O)[C@@]1(O)C[C@H]2O[C@]1(C)n1c3ccccc3c3c4c(c5c6ccccc6n2c5c31)C(=O)NC4` [K252a], 9.89 °C. Same read-out and setting: under `O=C1NC(=O)/C(=C/c2ccc(-c3nc4ccccc4s3)o2)S1` [BAS 09687195] stands 2.87 °C; under `O` [Water], 2.01 °C; under Cdk1/2 Inhibitor III, 3.6 °C. Consider `O=C1c2ccccc2-c2n[nH]c3cccc1c23` [JNK Inhibitor II, Anthra[1,9-cd]pyrazol-6(2H)-one], for which the “ΔTm, primary screen, GRK5” value was found to be 2.19 °C.

On to `NC(=O)Nc1sc(-c2ccccc2)cc1C(N)=O` [IKK-2 Inhibitor VI], for which the “ΔTm, primary screen, GRK5” value stood at 2.57 °C.

The assay is the same for the next values; noted with them: 10 μM compound, 2 μM kinase, relative to DMSO control; read-out: ΔTm, primary screen, GRK5.
A word on the ΔTm: it is the change in melting temperature against a reference sample. With `Cc1cc(O)cc(C)c1/C=C/c1cncc(C(=O)OC(C)(C)C)c1` [GW439255X], the ΔTm at 10 µM amounted to 2.66 °C. Regarding `CC(C)=Cc1cccc2c1C(=NNc1ccc(S(N)(=O)=O)cc1)C(=O)N2` [GW396574X], the ΔTm at 10 µM was determined as 2.08 °C.

For `O=c1cc(-c2ccc(O)cc2)oc2cc(O)cc(O)c12` [Apigenin, 4',5,7-Trihydroxyflavone], the ΔTm at 10 µM was 2.9 °C. On to `CCCN1CCC=C(c2ccc(Nc3nc(Nc4ccccc4C(N)=O)c4cc[nH]c4n3)c(C)c2)C1` [GSK994854A], for which the ΔTm at 10 µM stood at 4.92 °C. Take `Nc1nccc(C#Cc2cncnc2Nc2ccc(OCc3cccc(F)c3)c(Cl)c2)n1` [GW799251X]: the ΔTm at 10 µM was 4.33 °C. As to `COC(=O)Nc1nc2ccc(S(=O)(=O)c3ccc(NC(=O)Nc4cc(C(F)(F)F)ccc4F)cc3)cc2[nH]1` [GW680908A], the shift in melting temperature (ΔTm) at 10 µM turned out to be 4.07 °C. The same measure, in the same setting: under `CC(C)[C@H](CO)Nc1nc(Nc2cccc(Cl)c2)c2ncn(C(C)C)c2n1` [Purvalanol A, 2-(1R-Isopropyl-2-hydroxyethylamino)-6-(3-chloroanilino)-9-isopropyl-purine] stands 6.44 °C; under `CS(=O)(=O)CCN(CC#N)Cc1ccc(-c2ccc3ncnc(Nc4ccc(OCc5cccc(F)c5)c(Cl)c4)c3c2)o1` [GW616030X], 3.29 °C; under `NC(=O)c1sc(-n2cnc3ccc(C(F)(F)F)cc32)cc1OCc1ccccc1Br` [GW853606X], 4.43 °C. Still for that read-out and setting: as for `COC(=O)Nc1nc2ccc(Oc3ccc(NC(=O)Nc4cccc(Br)c4)cc3)cc2[nH]1` [GW694234A], the figure is 4.08 °C; as for `Cn1cc(C=C2C(=O)Nc3cccnc32)c2ccccc21` [GW441756X], 2.82 °C. On the same count and under the same terms, under `O=C1Nc2ccccc2/C1=C1\CCc2cc(O)ccc21` [GR105659X] stands 3.25 °C; under `O=c1c(-c2ccc(O)cc2)coc2cc(O)cc(O)c12` [Genistein, 4',5,7-Trihydroxyisoflavone], 2.46 °C. As to `COC(=O)Nc1nc2ccc(Oc3ccc(NC(=O)Nc4cccc(C(=O)O)c4)cc3)cc2[nH]1` [GW701427A], the ΔTm at 10 µM was determined as 3.25 °C. On the same count and under the same terms, under `CS(=O)(=O)CCNCc1ccc(-c2ccc3ncnc(Nc4ccc(OCc5ccccc5)c(Cl)c4)c3c2)o1` [GW574783B] stands 4.25 °C; under `CCCN1CCCC(c2ccc(Nc3nc(Nc4cc(F)ccc4C(N)=O)c4cc[nH]c4n3)c(OC)c2)C1` (centres unmarked) [GSK1173862A], 4.75 °C; under `CC(=O)Nc1cccc(C#Cc2cncnc2Nc2ccc(OCc3cccc(F)c3)c(Cl)c2)c1` [GW703087X], 3.36 °C. The same measure, in the same setting: as for `CN1CCN(CCCNc2nc3ccc(Oc4ccc(NC(=O)Nc5cc(C(F)(F)F)ccc5F)cc4)cc3[nH]2)CC1` [GW700494A], the figure is 3.97 °C. The same measure, in the same setting: under `COC(=O)Nc1nc2ccc(Sc3ccc(NC(=O)Nc4cc(C(F)(F)F)ccc4F)cc3)cc2[nH]1` [GW607049C] stands 3.59 °C; under `NS(=O)(=O)c1ccc(NN=C2C(=O)Nc3ccc(C(=O)NCc4ccncc4)cc32)cc1` [GW300657X], 3.89 °C; under `Fc1cccc(COc2ccc(Nc3ncnc4sc(-c5ccco5)cc34)cc2Cl)c1` [GSK969786A], 2.11 °C.

With `Nc1ncnc2occ(-c3ccc(NC(=O)Nc4cc(C(F)(F)F)ccc4F)cc3)c12` [GW770249X], the ΔTm at 10 µM was 3.19 °C.

For the compound `CN1CC[C@H](c2c(O)cc(O)c3c(=O)cc(-c4ccccc4Cl)oc23)[C@H](O)C1` [Flavopiridol], the ΔTm at 10 µM was 4.13 °C. For `O=C1Nc2ccccc2/C1=C/Nc1ccc2[nH]c(=O)[nH]c2c1` [GW284408X], the shift in melting temperature (ΔTm) at 10 µM came to 2.4 °C.

For the compound `CCNC(=O)O[C@H]1CN[C@H](C#Cc2cc3ncnc(Nc4ccc(OCc5cccc(F)c5)c(Cl)c4)c3s2)C1` [GSK192082A], the ΔTm at 10 µM was found to be 2.97 °C. The same measure, in the same setting: under `Nc1ncnc2occ(-c3ccc(NC(=O)Nc4cccc(C(F)(F)F)c4)cc3)c12` [GW795493X] stands 4.96 °C; under `NS(=O)(=O)c1ccc(NN=C2C(=O)Nc3ccc(C(=O)NCCCn4ccnc4)cc32)cc1` [GW290597X], 3.72 °C; under `COC(=O)Nc1nc2ccc(Oc3cccc(NC(=O)Nc4cc(C(F)(F)F)ccc4F)c3)cc2[nH]1` [GW659386A], 2.51 °C.

As for `CS(=O)(=O)CCNCc1coc(-c2ccc3ncnc(Nc4ccc(OCc5ccccc5)cc4)c3c2)c1` [GW566221A], the ΔTm at 10 µM amounted to 2.58 °C. Still for that read-out and setting: under `O=c1c(O)c(-c2ccc(O)c(O)c2)oc2cc(O)cc(O)c12` [Quercetin, 3,3',4',5,7-Pentahydroxyflavone] stands 10.6 °C. With `Nc1nonc1-c1nc2cnccc2n1C1CC1` [SB-736302], the ΔTm at 10 µM was 2.86 °C.

Take `O=C(Nc1ccc(Oc2ccc3nc(NC(=O)c4ccco4)[nH]c3c2)cc1)Nc1cc(C(F)(F)F)ccc1F` [GW683134A]: the shift in melting temperature (ΔTm) at 10 µM worked out at 2.32 °C.

For the compound `O=C(Nc1n[nH]c2nc(-c3ccco3)c(Br)cc12)C1CC1` [SB-739452], the ΔTm at 10 µM was 2.03 °C. Consider `c1ccc(COc2ccc(Nc3ncnc4ccc(-c5ccco5)cc34)cc2)cc1` [GW284372X], for which the ΔTm at 10 µM came out at 3.6 °C.

Take `CS(=O)(=O)CCNCc1ccc(-c2ccc3ncnc(Nc4ccc(OCc5ccccc5)c(Br)c4)c3c2)o1` [GW580496A]: the ΔTm at 10 µM worked out at 4.33 °C. In the case of `CCc1nn2ncccc2c1-c1ccnc(NC2CC2)n1` [GW683768X], the ΔTm at 10 µM was determined as 2.22 °C.

On to `O=S(=O)(CCNCc1ccc(-c2ccc3ncnc(Nc4ccc(OCc5cccc(F)c5)c(Cl)c4)c3c2)o1)c1ccccc1` [GW633459A], for which the ΔTm at 10 µM is 3.27 °C. The same measure, in the same setting: as for `CCS(=O)(=O)c1ccc(OC)c(Nc2ncc(-c3ccccc3Cl)o2)c1` [GW622055X], the figure is 2.14 °C; as for `NS(=O)(=O)c1ccc(Nc2cc(-c3cccc(O)c3)n[nH]2)cc1` [GW831090X], 2.96 °C; as for `COc1cc(N2CCN(C(C)C)CC2)ccc1Nc1nc(Nc2ccc(F)cc2C(N)=O)c2cc[nH]c2n1` [GSK1220512A], 3.05 °C. `NS(=O)(=O)c1ccc(N/N=C2\C(=O)Nc3ccc(C(=O)NCCc4c[nH]cn4)cc32)cc1` [GW300660X]: the ΔTm at 10 µM is 3.03 °C.

The assay is the same for the next values; noted with them: read-out: ΔTm, primary screen, GRK5, 10 μM compound, 2 μM kinase, relative to DMSO control.
`c1cc(-c2cnn3nc(N4CCOCC4)ccc23)nc(NC2CC2)n1` [GW708336X]: the ΔTm at 10 µM is 2.8 °C. `Clc1ccc(CNc2nccc(-c3cnn4ncccc34)n2)cc1` [GW781673X]: the ΔTm at 10 µM is 2.27 °C.
